Data on 34 compounds can be found in patent publication US20240034736A1, “HSD17B13 INHIBITORS AND USES THEREOF” (FL2022-001, Inc., priority 2020, published 2024).

In one experiment the target is Recombinant human HSD17B13 enzyme (Homo sapiens (Human), UniProt Q7Z5P4). Description: HSD17b13 NAD(P)H-Glo Biochemical Assay. The settings on record: 50 uM estradiol, 1 mM NAD+; read-out: HSD17β13 IC50. In short, it runs like this: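 Recombinant human HSD17B13 was pre-incubated with inhibitor for 20 min at RT in 20 mM Tris pH 7.4 with 0.002% Tween-20 and 0.02% BSA. Reaction then ran with 50 uM estradiol and 1 mM NAD+ (final) for 3 h at 37° C. NADH formed was detected by NAD(P)H-Glo luminescence after 1 h at RT.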
Recombinant human HSD17B13 enzyme, sequence (Q7Z5P4 20-300): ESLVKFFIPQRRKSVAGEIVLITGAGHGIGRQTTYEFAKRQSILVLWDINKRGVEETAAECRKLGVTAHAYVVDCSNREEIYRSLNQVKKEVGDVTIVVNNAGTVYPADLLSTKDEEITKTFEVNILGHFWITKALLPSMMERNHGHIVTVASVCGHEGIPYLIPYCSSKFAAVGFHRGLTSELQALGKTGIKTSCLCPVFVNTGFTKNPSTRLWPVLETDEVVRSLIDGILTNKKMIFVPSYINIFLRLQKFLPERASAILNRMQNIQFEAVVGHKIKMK
For `CN(c1ccc2c(c1)c(C(N)=O)nn2-c1cc(C(F)(F)F)c(F)c(O)c1F)C1CCOCC1` [Compound 19.111, 1-(2,4-Difluoro-3-hydroxy-5-(trifluoromethyl)phenyl)-5-(methyl(tetrahydro-2H-pyran-4-yl)amino)-1H-indazole-3-carboxamide], the IC50 fell in the range of 100 to 1000 nM.
The same measure, in the same setting: the result for `CNC(=O)c1nn(-c2cc(C(F)(F)F)c(F)c(O)c2F)c2ccc(N(C)C3CCOCC3)cc12` [Compound 19.112, 1-(2,4-Difluoro-3-hydroxy-5-(trifluoromethyl)phenyl)-N-methyl-5-(methyl(tetrahydro-2H-pyran-4-yl)amino)-1H-indazole-3-carboxamide] reads 1000 to 30000 nM; that for `CN(C)C(=O)c1nn(-c2cc(C(F)(F)F)c(F)c(O)c2F)c2ccc(N(C)C3CCOCC3)cc12` [Compound 19.113, 1-(2,4-Difluoro-3-hydroxy-5-(trifluoromethyl)phenyl)-N,N-dimethyl-5-(methyl(tetrahydro-2H-pyran-4-yl)amino)-1H-indazole-3-carboxamide], 1000 to 30000 nM; that for `Cc1nn(-c2cc(C(F)(F)F)c(F)c(O)c2F)c2cc(Cl)c(N3CCOCC34CC4)nc12` [Compound 19.114, 3-(6-Chloro-3-methyl-5-(7-oxa-4-azaspiro[2.5]octan-4-yl)-1H-pyrazolo[4,3-b]pyridin-1-yl)-2,6-difluoro-5-(trifluoromethyl)phenol], less than 100 nM.
Same read-out and setting: the value for `Cc1nn(-c2cc(C(F)(F)F)c(F)c(O)c2F)c2cc(Cl)c(N(C)C3CCOCC3)nc12` [Compound 19.115, 3-(6-Chloro-3-methyl-5-(methyl(tetrahydro-2H-pyran-4-yl)amino)-1H-pyrazolo[4,3-b]pyridin-1-yl)-2,6-difluoro-5-(trifluoromethyl)phenol] was less than 100 nM; that for `Cc1nn(-c2cc(C(F)(F)F)c(Cl)c(O)c2F)c2cnc(N3CCOCC34CC4)cc12` [Compound 19.116, 2-Chloro-6-fluoro-5-(3-methyl-5-(7-oxa-4-azaspiro[2.5]octan-4-yl)-1H-pyrazolo[3,4-c]pyridin-1-yl)-3-(trifluoromethyl)phenol] was less than 100 nM.
The same measure, in the same setting: the result for `CCCCCOc1ncc2c(n1)c(C)nn2-c1cc(C(F)(F)F)c(F)c(O)c1F` [Compound 19.117, 2,6-Difluoro-3-(3-methyl-5-(pentyloxy)-1H-pyrazolo[4,3-d]pyrimidin-1-yl)-5-(trifluoromethyl)phenol] reads 100 to 1000 nM; that for `Cc1nn(-c2cc(C(F)(F)F)c(F)c(O)c2F)c2cnc(N3CCNCC3)nc12` [Compound 19.118, 2,6-Difluoro-3-(3-methyl-5-(piperazin-1-yl)-1H-pyrazolo[4,3-d]pyrimidin-1-yl)-5-(trifluoromethyl)phenol], 1000 to 30000 nM; that for `Cc1nn(-c2nc(C(F)(F)F)c(F)c(O)c2F)c2cnc(N3CCOCC34CC4)cc12` [Compound 19.119, 3,5-Difluoro-2-(3-methyl-5-(7-oxa-4-azaspiro[2.5]octan-4-yl)-1H-pyrazolo[3,4-c]pyridin-1-yl)-6-(trifluoromethyl)pyridin-4-ol], 1000 to 30000 nM.
Regarding `CS(=O)(=O)N1CCN(c2ccc3c(cnn3-c3ccc(F)c(O)c3)c2)CC1` [Compound 20, 2-Fluoro-5-(5-(4-(methylsulfonyl)piperazin-1-yl)-1H-indazol-1-yl)phenol], the IC50 fell in the range of 1000 to 30000 nM.
Same read-out and setting: the value for `Oc1cc(-n2ncc3cc(N4CCC(O)CC4)ccc32)ccc1F` [Compound 20.01, 1-(1-(4-Fluoro-3-hydroxy-phenyl)-1H-indazol-5-yl)-piperidin-4-ol] was 1000 to 30000 nM.
On the same count and under the same terms, the value for `O=C(O)C1CCN(c2ccc3c(cnn3-c3ccc(F)c(O)c3)c2)CC1` [Compound 20.02, 1-(1-(4-Fluoro-3-hydroxy-phenyl)-1H-indazol-5-yl)-piperidine-4-carboxylic acid] was 1000 to 30000 nM; that for `CS(=O)(=O)N1CCN(c2ccc3c(cnn3-c3cc(O)c(F)c(F)c3)c2)CC1` [Compound 21, 2,3-Difluoro-5-(5-(4-(methylsulfonyl)piperazin-1-yl)-1H-indazol-1-yl)phenol] was 100 to 1000 nM; that for `Cc1nn(-c2cc(O)c(F)c(F)c2)c2ccc(N3CCN(S(C)(=O)=O)CC3)cc12` [Compound 21.01, 2,3-Difluoro-5-(3-methyl-5-(4-(methylsulfonyl)piperazin-1-yl)-1H-indazol-1-yl)phenol] was 100 to 1000 nM.
On the same count and under the same terms, the result for `COC1CCN(c2ccc3c(cnn3-c3ccc(F)c(O)c3)c2)CC1` [Compound 21.02, 2-Fluoro-5-(5-(4-methoxy-piperidin-1-yl)-1H-indazol-1-yl)phenol] reads 1000 to 30000 nM; that for `CC(C)c1nn(-c2cc(O)c(F)c(F)c2)c2ccc(N3CCN(S(C)(=O)=O)CC3)cc12` [Compound 21.03, 2,3-Difluoro-5-(3-isopropyl-5-(4-(methylsulfonyl)piperazin-1-yl)-1H-indazol-1-yl)phenol], 1000 to 30000 nM.
For the compound `CC(C)S(=O)(=O)N1CCN(c2ccc3c(cnn3-c3cc(O)c(F)c(F)c3)c2)CC1` [Compound 21.04, 2,3-Difluoro-5-(5-(4-(isoprop-ylsulfonyl)piperazin-1-yl)-1H-indazol-1-yl)phenol], the IC50 was in the range of 100 to 1000 nM.
On the same count and under the same terms, the result for `CS(=O)(=O)NC1CCN(c2ccc3c(cnn3-c3cc(O)c(F)c(F)c3)c2)CC1` [Compound 21.05, N-(1-(1-(3,4-Difluoro-5-hydroxyphenyl)-1H-indazol-5-yl)piperidin-4-yl)methane-sulfonamide] reads 1000 to 30000 nM.
On the same count and under the same terms, the value for `CS(=O)(=O)C1CCN(c2ccc3c(cnn3-c3cc(O)c(F)c(F)c3)c2)CC1` [Compound 21.06, 2,3-Difluoro-5-(5-(4-(methyl-sulfonyl)piperidin-1-yl)-1H-indazol-1-yl)phenol] was 1000 to 30000 nM; that for `CS(=O)(=O)NC1CN(c2ccc3c(cnn3-c3cc(O)c(F)c(F)c3)c2)C1` [Compound 21.07, N-(1-(1-(3,4-Difluoro-5-hydroxyphenyl)-1H-indazol-5-yl)azetidine-3-yl)methane-sulfonamide] was 1000 to 30000 nM.
Same read-out and setting: the value for `O=S1(=O)CCN(c2ccc3c(cnn3-c3cc(O)c(F)c(F)c3)c2)CC1` [Compound 21.08, 4-(1-(3,4-Difluoro-5-hydroxy-phenyl)-1H-indazol-5-yl)-thiomorpholine 1,1-dioxide] was 1000 to 30000 nM; that for `O=S(=O)(c1ccccc1)N1CCN(c2ccc3c(cnn3-c3cc(O)c(F)c(F)c3)c2)CC1` [Compound 21.09, 2,3-Difluoro-5-(5-(4-(phenyl-sulfonyl)piperazin-1-yl)-1H-indazol-1-yl)phenol] was 100 to 1000 nM.
Take `O=S(=O)(Cc1ccccc1)N1CCN(c2ccc3c(cnn3-c3cc(O)c(F)c(F)c3)c2)CC1` [Compound 21.10, 5-(5-(4-(Benzylsulfonyl)-piperazin-1-yl)-1H-indazol-1-yl)-2,3-difluorophenol]: the IC50 was in the range of 100 to 1000 nM.
Same read-out and setting: the result for `Cc1cc2c(cnn2-c2cc(O)c(F)c(F)c2)cc1N1CCN(S(C)(=O)=O)CC1` [Compound 21.11, 2,3-Difluoro-5-(6-methyl-5-(4-(methylsulfonyl)piperazin-1-yl)-1H-indazol-1-yl)phenol] reads 1000 to 30000 nM.
With `CS(=O)(=O)N1CCN(c2ccc3c(c2)c(C2CC2)nn3-c2cc(O)c(F)c(F)c2)CC1` [Compound 21.12, 5-(3-Cyclopropyl-5-(4-(meth-ylsulfonyl)piperazin-1-yl)-1H-indazol-1-yl)-2,3-difluoro-phenol], the IC50 lay in the range of 1000 to 30000 nM.
In the case of `CS(=O)(=O)N1CCN(c2cc3cnn(-c4cc(O)c(F)c(F)c4)c3cc2Cl)CC1` [Compound 21.13, 5-(6-Chloro-5-(4-(methyl-sulfonyl)piperazin-1-yl)-1H-indazol-1-yl)-2,3-difluoro-phenol], the concentration for half-maximal inhibition (IC50) fell in the range of 100 to 1000 nM.
With `Cc1c(N2CCN(S(C)(=O)=O)CC2)ccc2c1cnn2-c1cc(O)c(F)c(F)c1` [Compound 21.14, 2,3-Difluoro-5-(4-methyl-5-(4-(methylsulfonyl)piperazin-1-yl)-1H-indazol-1-yl)phenol], the IC50 was in the range of 1000 to 30000 nM.

Staying with this experiment, now noted: read-out: HSD17β13 inhibition at 10 uM.
`Cc1nn(-c2cccc(O)c2C#N)c2cnc(N(C)C3CCOCC3)cc12` [Compound 19.120, 2-Hydroxy-6-(3-methyl-5-(methyl(tetrahydro-2H-pyran-4-yl)amino)-1H-pyrazolo[3,4-c]pyridin-1-yl)benzonitrile]: the inhibition at 10 µM amounted to 25%.
On the same count and under the same terms, the value for `Cc1nn(-c2cc(O)c(F)c(C(=O)O)c2)c2cnc(N3CCOCC34CC4)cc12` [Compound 19.121, 2-Fluoro-3-hydroxy-5-(3-methyl-5-(7-oxa-4-azaspiro[2.5]octan-4-yl)-1H-pyrazolo[3,4-c]pyridin-1-yl)benzoic Acid] was less than 20%; that for `CNC(=O)c1cc(-n2nc(C)c3cc(N4CCOCC45CC5)ncc32)cc(O)c1F` [Compound 19.122, 2-Fluoro-3-hydroxy-N-methyl-5-(3-methyl-5-(7-oxa-4-azaspiro[2.5]octan-4-yl)-1H-pyrazolo[3,4-c]pyridin-1-yl)benzamide] was 20%.
On the same count and under the same terms, the value for `CN(C)C(=O)C1CCN(c2ccc3c(cnn3-c3ccc(F)c(O)c3)c2)CC1` [Compound 20.04, 1-(1-(4-Fluoro-3-hydroxy-phenyl)-1H-indazol-5-yl)-N,N-dimethylpiperidine-4-carboxamide] was less than 20%.

Staying with this experiment, now noted: read-out: HSD17β13 inhibition at 30 uM.
Turning to `CS(=O)(=O)N1CCN(c2cc3cnn(-c4cc(O)cc(C#N)c4)c3cn2)CC1` [Compound 19.123, 3-Hydroxy-5-(5-(4-(methylsulfonyl)piperazin-1-yl)-1H-pyrazolo[3,4-c]pyridin-1-yl)benzonitrile], the inhibition at 30 µM was 30%.

The experiment is the same for the next values; noted with them: read-out: HSD17β13 inhibition at 100 uM.
As for `CNC(=O)C1CCN(c2ccc3c(cnn3-c3ccc(F)c(O)c3)c2)CC1` [Compound 20.03, 1-(1-(4-Fluoro-3-hydroxy-phenyl)-1H-indazol-5-yl)-N-methylpiperidine-4-carboxamide], the inhibition at 100 µM came to 40%.
On the same count and under the same terms, the result for `CC(=O)N1CCN(c2ccc3c(cnn3-c3ccc(F)c(O)c3)c2)CC1` [Compound 20.05, 1-(4-(1-(4-Fluoro-3-hydroxyphenyl)-1H-indazol-5-yl)piperazin-1-yl)ethan-1-one] reads less than 20%.
